In patent publication US20090325877A1, “Combination Product of Receptor Tyrosine Kinase Inhibitor and Fatty Acid Synthase Inhibitor for Treating Cancer” (Wyeth, priority 2008, published 2009):
Values after ≈ are worked out from the molar mass of the structure shown.

What was measured:
[1] = tested on: SKOV3 ovarian cancer cells; experiment: Formazan dye (MTT) in-vitro cell growth assay, SKOV3; assay type: cell-based
Description: Cells were plated at 0.5−5×10^3/well in 96-well plates. After adhesion, media ±drugs alone or in combination were added. Cell numbers were estimated after 3-5 days by using a colorimetric formazan dye assay (Biomedica, Vienna, Austria). […] Statistical analysis of data from drug combination treatment experiments was performed using one-factorial ANOVA followed by Scheffe-test.
Yellow MTT (3-(4,5-Dimethylthiazol-2-yl)-2,5-diphenyltetrazolium bromide, a tetrazole) is reduced to purple formazan in the mitochondria of living cells (see Mosmann, T., J. Immunol. Methods, 65(1-2): 55-63, 1983).

FASN mRNA = FASN mRNA expression by qRT-PCR in A2780 cells; assay type: cell-based, human
Source text: RNA was extracted from the cells using TRI-REAGENT™ (Molecular Research Center, Cincinnati, Ohio) and subjected to reverse transcription—polymerase chain reaction (“RT-PCR”) using the TITAN ONE TUBE RT-PCR KIT™ system (Hoffmann-La Roche). Primers were: EGFR: 5′-[…]-3′ (SEQ ID NO:1) (forward, E1S) 5′-[…]-3′ (SEQ ID NO:2) (reverse, E1A); ErbB-2: 5′-[…]-3′ (SEQ ID NO:3) (forward, E2S2), 5′-[…]-3′ (SEQ ID NO:4) (reverse, E2A2); GAPDH: 5′-[…]-3′ (SEQ ID NO:5) (forward, GAPDH3S), 5′-[…]-3′ (SEQ ID NO:6) (reverse, GAPDH3A). Conditions for reverse transcription and amplification of the EGFR coding sequence were: 50° C., 30 minutes; 94° C., 2 minutes; 10 cycles (94° C., 30 seconds; 64.9° C., 30 seconds; 68° C., 90 seconds); 30 cycles (94° C., 30 seconds; 64.9° C., 30 seconds; 68° C., 90 seconds +5 seconds autoextension) and 68° C., 7 minutes. Conditions for ErbB2 and GAPDH were: 50° C., 30 minutes; 94° C., 2 minutes; 10 cycles (94° C., 30 seconds; 51° C., 30 seconds; 68° C., 45 seconds); 25 cycles (94° C., 30 seconds; 51° C., 30 seconds; 68° C., 45 seconds +5 seconds autoextension) and 68° C., 7 minutes. DNA products had the following sizes: EGFR: 1452 bp, ErbB2: 900 bp, GAPDH: 488 bp. Fragments were electrophoresed and stained with ethidium bromide.
(§1) Quantitative RT-PCR (“qRT-PCR”) was performed in the ABI PRISM 7000™ Sequence Detector (Applied Biosystems, Foster City, Calif.) using human EGFR, ErbB2, and FASN TaqMan® Gene Expression Assay systems (Applied Biosystems; Assay IDs: Hs00193306_m1, Hs00170433_m1, Hs00188012_m1) according to the manufacturer's instructions. β-actin and GAPDH (VIC™ and FAM labeled pre-developed TaqMan® Assay reagents, Applied Biosystems) were used as endogenous controls. EGFR, ErbB2, and FASN mRNA expression were calculated as described previously (Grunt, ibid).

FASN protein = FASN protein level by Western blotting in A2780 cells; assay type: cell-based
EGFR mRNA = EGFR mRNA by RT-PCR and qRT-PCR in A2780 cells; assay type: cell-based, human
Description: RNA was extracted from the cells using TRI-REAGENT™ (Molecular Research Center, Cincinnati, Ohio) and subjected to reverse transcription—polymerase chain reaction (“RT-PCR”) using the TITAN ONE TUBE RT-PCR KIT™ system (Hoffmann-La Roche). […] Conditions for ErbB2 and GAPDH were: 50° C., 30 minutes; 94° C., 2 minutes; 10 cycles (94° C., 30 seconds; 51° C., 30 seconds; 68° C., 45 seconds); 25 cycles (94° C., 30 seconds; 51° C., 30 seconds; 68° C., 45 seconds +5 seconds autoextension) and 68° C., 7 minutes. […] Fragments were electrophoresed and stained with ethidium bromide.
as §1

EGFR protein = EGFR protein and tyrosine phosphorylation by Western blot in A2780 cells; assay type: cell-based
ERK1/2 = ERK1/2 phosphorylation and expression by Western blotting in A2780 and SKOV3 cells; assay type: cell-based
Description: Cells plated in culture media containing 5% fetal calf serum at a density of 2.6×10^5 (SKOV3) or 6×10^5 (A2780) in 60 mm dishes (Corning, Corning, N.Y.) were treated with FASN inhibitor C75, with small-molecule ErbB RTK inhibitors (RTKIs), with the MEK1/2 antagonist U0126 or with the PI3K inhibitor LY294002 for the indicated times and at various concentrations. In some experiments cells were stimulated for 5 or 10 min with 100 ng/ml EGF (Sigma) before lysis in RIPA buffer (Grunt et al., Biochem Biophys Res Commun 329:1253-1259, 2005). Proteins (20 μg/lane) were subjected to SDS-PAGE, blotted onto PVDF membranes and immunostained (see Grunt, ibid) using the following antibodies: 2 μg/ml goat anti-pEGFR(Tyr1173) (sc-12351), 1 μg/ml rabbit anti-ErbB2 (C-18) (sc-284), 1 μg/ml rabbit anti-pErbB2(Tyr1248) (sc-12352-R) (all from Santa Cruz Biotechnology Inc., Santa Cruz, Calif.), rabbit anti-EGFR 1:1,000 (2232), rabbit anti-AKT 1:1,000 (9272), rabbit anti-pAKT(Ser473) 1:1,000 (9271), rabbit anti-pAKT(Thr308) 1:1,000 (9275), rabbit anti-pERK1/2(Thr202/Tyr204) 1:1,000 (9101) (all from Cell Signaling Technology), rabbit anti-ERK1/2 1:3,000 (06-182, Upstate Biotechnology Inc., Lake Placid, N.Y.), 0.5 μg/ml mouse monoclonal anti-FASN (610963, BD Biosciences, San Jose, Calif.), or 0.67 μg/ml goat anti-human actin (1-19, sc-1616, Santa Cruz Biotechnology). […]

[2] = b102: within three days, pelitinib at doses as low as 3 μM

C=C1C(=O)OC(CCCCCCCC)C1C(=O)O (stereo not drawn) [C75, tetrahydro-3-methylene-2-oxo-5-n-octyl-4-furancarboxylic acid]
inhibition at 10 µg/mL ([1]; Homo sapiens, SK-OV-3, 10 μg/ml C75 on its own): 50 to 55% | in vitro growth inhibition (in words) ([1]; MTT assay, single drug): growth inhibitory activity | IC50 (FASN mRNA; Homo sapiens, 72 h, after 3 days, qRT-PCR, read-out: IC50, down-regulation of FASN mRNA expression): 5.25 µg/mL (≈ 20.6 µM) | IT50 (time of exposure after which a 50% inhibition is obtained), FASN mRNA (FASN mRNA; at 7 μg/ml): 21.5 h | FASN mRNA expression, effect in words (FASN mRNA; [2]): shut-down | IT50, FASN protein (FASN protein): 40 h | IC50 (FASN protein; Homo sapiens, read-out: IC50, down-regulation of FASN protein): 4.15 µg/mL (≈ 16.3 µM) | FASN protein expression, effect in words (FASN protein; [2]): shut-down | EGFR mRNA, effect in words (EGFR mRNA): slowly and concordantly reduces | IC50 (EGFR mRNA; Homo sapiens, 72 h, after 3 days, read-out: IC50, down-regulation of EGFR mRNA): 6.5 µg/mL (≈ 25.6 µM) | IT50, EGFR mRNA (EGFR mRNA; at 7 μg/ml): about 29 hours | EGFR total protein, effect in words (EGFR protein): slowly and concordantly reduces | EGFR tyrosine phosphorylation (activity), effect in words (EGFR protein): slowly and concordantly reduces | IT50, EGFR phosphorylation (EGFR protein): 20 h | IT50, EGFR protein (EGFR protein): 29 h | IC50 (EGFR protein; Homo sapiens, Western blot): 3.6 µg/mL (≈ 14.2 µM) | pERK1/2 levels, effect in words (ERK1/2): dose-dependently increase | total ERK1/2 levels, effect in words (ERK1/2): concurrently decline
